Measurements from patent US20260182575A1, “MOLECULES HAVING PESTICIDAL UTILITY AND INTERMEDIATES AND PROCESSES RELATED THERETO” (CORTEVA AGRISCIENCE LLC, priority 2022, published 2026).
Where “and” joins values, the source holds several entries; their conditions need not be identical. Identical values can stand only once.

How the values were obtained:
Type in all cases: in vivo
[1] = test system: Fall Armyworm (Spodoptera frugiperda, LAPHFR, FAW); test: Bioassay 7: fall armyworm, artificial diet, 96 well plate
Method: The test solutions were tested against CEW, FAW, BAW, and SBL using the following procedure: an artificial lepidopteran diet (Multispecies Lepidopteran Diet, Southland Products) was distributed in 96 well plate. Twenty μL of test solution was pipetted onto a cell in the bioassay plate. […] Each treatment was replicated 5 times for each species. Approximately five first instar CEW, FAW, BAW, or SBL larva were placed on top of the diet in each cell and was contained with a clear perforated adhesive lid. Test trays were held at approximately 25° C. and ambient relative humidity prior to grading. After five days, the number of cells where all the larvae were dead were recorded as 100% and averaged across all replicates; then the percent control was measured using Abbott's correction formula (W. S. Abbott, J. Econ. Entomol. 18 (1925), pp. 265-267) as follows:
where X=No. of live larvae on solvent check and Y=No. of live larvae on treated diet. In Table 7 the “Expected % Control” was calculated using the method described in Colby S. R., Weeds, 1967, 15, 20-22. Bioassay 8: Western Corn Rootworm (Diabrotica virgifera virgifera, DIABVI, “WCR”)

[2] = test system: Soybean Looper (Chrysodeixis includens, PSEPIN, SBL); test: Bioassay 7: soybean looper, artificial diet, 96 well plate; details: CL; F1 alone at 0.000005 wt %
[3] = test system: Western Corn Rootworm (Diabrotica virgifera virgifera, DIABVI, WCR); test: Bioassay 8: western corn rootworm, soil drench, corn root protection; details: F1 alone, DIABVI (CRW), 10 mL soil drench, corn nodal root length after 13 days
Method: Corn seeds were planted in steam pasteurized soil filled greenhouse pots. Western corn rootworm Diabrotica virgifera virgifera eggs supplied from the Corteva Agriscience in Johnston, IA US, were suspended in a 0.08% agar solution added into the soil. Stock solutions of F1 and active ingredients were prepared at a concentration of either 250 or 500 ugai/10 mL for F1 and active ingredients at the ratios of (F1:AI) 1:0.004; 1:0.01; 1:0.02; 1:0.04; 1:0.08; 1:0.1; 1:0.15; 1:0.2; 1:0.4; 1:2; or 1:4, using a 1:1 solution of acetone:water as a diluent. A soil application of solutions were applied as a 10 mL drench over the soil. Plants were grown in the greenhouse for 13 days at 25 C after which the roots were removed from the soil, washed, and measured to determine the length of the median nodal roots. The measured lengths were compared to the infested and un-infested untreated checks to determine the mean percent control offered to protect the corn roots.

[4] = test system: Sweet Potato Whitefly (Bemisia tabaci, BEMITA, SPW); test: Bioassay 2: sweet potato whitefly, cotton seedling foliar spray; details: F1 alone
[5] = test system: Beet Armyworm (Spodoptera exigua, LAPHEG, BAW); test: Bioassay 7: beet armyworm, artificial diet, 96 well plate

Compound: Cc1ccc(COCC(F)(F)F)c(N2C(=O)CS/C2=N\C(=O)Nc2ccc(-c3ncn(-c4ccc(OC(F)(F)F)cc4)n3)cc2F)c1 [F1]
- Average % Control F1 ([1]; F1 alone at 0.0000025 wt %): 0.0%
- Average % Control F1 ([1]; F1 alone at 0.000005 wt %): 62.5%
- Average % Control F1 [2]: 80.0%
- Average % Control F1 ([3]; UgActive F1 250): 97.8% and 88.8%
- Average % Control F1 ([3]; UgActive F1 500): 83.9%
- Average % Control F1 ([4]; F1 0.1, 7-9 days after treatment): 0.0%
- Average % Control F1 ([4]; F1 10, 7-9 days after treatment): 37.4% and 50.1%
- Average % Control F1 ([5]; F1 alone at 0.0000025 wt %): 12.5%
- Average % Control F1 ([5]; F1 alone at 0.00001 wt %): 40.0%
